Data taken from patent publication US20020142347A1, “Biosensor” (BIOSENSOR ApS, priority 2000, published 2002).
Numbering of substitutions follows the chain as printed.

Key:
[1] = biological target: T1, FACI53 (Bos taurus, UniProt P07107, A54C); experiment: Isoelectrical focusing of acyl-CoA binding to FACI53; parameters: species or system bovine; settings: ligand in four-fold molar excess over protein
T1 construct: badan (6-bromoacetyl-2-dimethylaminonaphthalene) fluorophore on the introduced Cys-53; made in house; host or cells: E. coli BL21(DE3)pLysS, pET3a vector
T1 sequence (P07107 2-87 A54C): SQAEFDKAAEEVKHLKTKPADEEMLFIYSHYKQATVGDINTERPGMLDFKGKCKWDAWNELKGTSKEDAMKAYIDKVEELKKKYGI
Experimental: All the gels were prepared with ligands (1-7) in four-fold molar excess over protein. […] The protein-ligand complex shifted to a pl around 3.8. Legend: 1: Water, 2: CoA-SH, 3: C4-CoA, 4: C8-CoA, 5: C12-CoA, 6: C16-CoA, 7: C20-CoA, 8: Broad pl Calibration Kit (pH 3-10).
Quantitative determination of binding affinities (KD) were performed by isothermal titration micro calorimetry as previously described (Faergeman et. al., 1996; Biochemistry 35, 14118-14126). Qualitative evaluation of relative binding affinities were determined by isoelectrical focusing using the Pharmacia Fast Gel system according to the prescriptions given by the manufacture. Fluorescence emission changes induced by acyl-CoA binding to badan modified protein were determined as follows: 5 μl portions of acyl-CoAs were added from stock solutions disolved in binding buffer, (10 mM Hepes, 150 mM NaCL, 1 mM NaHPO4, pH 7.4) containing 3.4 μM Badan derivatized protein to a 1 ml 3.4 μM solution of the Badan derivatized ACBP in the same buffer. The fluorescence emission was measured on a SPEX FLOUROLOG (Industries Inc, Edison N.J., USA) with excitation at 400 nm and emission scan from 400 nm to 550 nm. […]

[2] = biological target: T1, FACI53; experiment: Fluorescence emission change of FACI-53 on titration with CoA and acyl-CoA esters; type: binding, bovine
Experimental: (§1) Quantitative determination of binding affinities (KD) were performed by isothermal titration micro calorimetry as previously described (Faergeman et. al., 1996; Biochemistry 35, 14118-14126). Qualitative evaluation of relative binding affinities were determined by isoelectrical focusing using the Pharmacia Fast Gel system according to the prescriptions given by the manufacture. Fluorescence emission changes induced by acyl-CoA binding to badan modified protein were determined as follows: 5 μl portions of acyl-CoAs were added from stock solutions disolved in binding buffer, (10 mM Hepes, 150 mM NaCL, 1 mM NaHPO4, pH 7.4) containing 3.4 μM Badan derivatized protein to a 1 ml 3.4 μM solution of the Badan derivatized ACBP in the same buffer. The fluorescence emission was measured on a SPEX FLOUROLOG (Industries Inc, Edison N.J., USA) with excitation at 400 nm and emission scan from 400 nm to 550 nm. The concentration of acyl-CoA in the aqueous phase was determined from the fluorescence emission sensitivities at 495 and 470 nm repectively essentially by the method described by (Grynkiewickz et. al.,1985, J. Biol. Chem. 260, 3440-3450) according to which:
(§2) Fluorescence titration emission spectra from 415 nm to 550 nm (excitation at 400 nm) were performed for CoA, C4:0-, C8:0-, C12:0-, C16:0-, and C20:0-CoA with all four mutated and badan modified proteins.
Titration of FACI-53 dissolved in binding buffer with the above mentioned acyl-CoA esters produced a smooth downward shift in fluorescence emission maximum from 525 nm when no ligand was present to 508, 503, 490, 492, 496 and 514 with increasing concentrations of CoA, C4:0-, C8:0-, C12:0-, C16:0- and C20:0-CoA respectively.

[3] = biological target: T2, FACI-24 (Bos taurus, UniProt P07107, M25C); experiment: Fluorescence emission change of FACI-24 on titration with CoA and acyl-CoA esters; type: binding, bovine
T2 construct: made in house; host or cells: E. coli BL21(DE3)pLysS, pET3a vector
T2 sequence (P07107 2-87 M25C): T1 sequence (P07107 2-87 A54C) with M24C, C53A
Experimental: as §1, §2
The emission maximum of FACI-24 without ligand added was 510 nm and titration with CoA, C4:0-, C8:0-, C12:0-, […], C16:0- and C20:0-CoA caused 0, 16, 34, 42, 46 and 46 nm downshift in emission maximum, respectively (results not shown). C16:0-CoA induced a 5,5 fold increase in emission at 464 nm (FIG. 10).
Titration of FACI with acyl-CoAs was done using a SPEX FLOUROLOG (Industries Inc, Edison N.J., USA) with excitation at 387 nm and emission at 460 nm, with both excitation and emission slits set to 4.5 nm. FACI (0.5-4.5 uM, as indicated) was dissolved in 1.5 ml binding buffer (10 mM HEPES 150 mM NaCl, 5 mM KCl, 1 mM Na2HPO4, pH 7.4) and titrated with a 10 μM acyl-CoA dissolved in binding buffer, with or without FACI added, as indicated. Fluorescence emission values (counts per second) measured without FACI added to the ligand stock solution were corrected for titrand dilution.

[4] = biological target: T1, FACI53; experiment: Isothermal titration calorimetry of acyl-CoA binding to FACI53; parameters: species or system bovine
Experimental: Reference is made to FIG. 2. and FIG. 3. which depict the emission spectra of FACI24 and FACI53 titrated with increasing concentrations of CoA, C4-, C8-, C12-, C16- and C20-CoA esters. The addition of ligand and measurement of emission of FACI24 and FACI53 was performed as described in example 2. The increased addition of ligand to the mutated and modified proteins caused a proportional spectral change. The normal physiological binding profile was confirmed by direct binding studies using isoelectrical focusing as predicted in FIG. 4. […] The results clearly indicate that fluorescence emission at 470 nm may provide a measure for the concentration of free unbound long-chain(>C12)-acyl-CoA ester.
Quantitative determination of binding affinities (KD) were performed by isothermal titration micro calorimetry as previously described (Faergeman et. al., 1996; Biochemistry 35, 14118-14126). Qualitative evaluation of relative binding affinities were determined by isoelectrical focusing using the Pharmacia Fast Gel system according to the prescriptions given by the manufacture. […] The fluorescence emission was measured on a SPEX FLOUROLOG (Industries Inc, Edison N.J., USA) with excitation at 400 nm and emission scan from 400 nm to 550 nm. […]

Binding to FACI53 by isoelectrical focusing [1]: shown to bind
Magnitude of emission of FACI-53, fold increase [2]: 1.3 fold
Fluorescence emission maximum of FACI-53 with ligand ([2]; 525 nm when no ligand present, excitation 400 nm): 496 nm
Relative emission of FACI-53 at 495 nm, fold increase ([2]; emission at 495 nm): 2.2 fold
Fold increase in emission of FACI-24 at 464 nm ([3]; emission at 464 nm): 5,5 fold
Downshift in emission maximum of FACI-24 ([3]; emission maximum without ligand 510 nm, excitation 400 nm): 46 nm
Binding to FACI53 by isothermal titration calorimetry [4]: binding was confirmed
SMILES: CCCCCCCCCCCCCCCC(=O)SCCNC(=O)CCNC(=O)[C@H](O)C(C)(C)COP(=O)(O)OP(=O)(O)OC[C@H]1O[C@@H](n2cnc3c(N)ncnc32)[C@H](O)[C@@H]1OP(=O)(O)O [C16:0-CoA, palmitoyl-CoA]
